SMILES strings stand for the structures. pIC50: −log10 of the molar value. Read-outs that look alike come from different tables or passages of the source. A value given as a limit tells only on which side of the number the result lay.

The source of these data is patent US12459951B2, “Compounds that interact with RAS superfamily proteins for treatment of cancers, inflammatory diseases, rasopathies, and fibrotic disease” (SHY Therapeutics, LLC, priority 2022, dated 2025).

One assay deals with TNF-alpha. The experiment in a line: TNF-alpha Quantification Assay (ELISA), LPS-stimulated RAW 264.7. The class given is cell-based. The note with it: Mus musculus, RAW264.7; at 10 μM; read-out: TNFα: % inh. (An ELISA detects its analyte on a solid surface through an enzyme-linked reagent.)
The test system of the next assay is IL6. Description: IL-6 Quantification Assay (ELISA), LPS-stimulated RAW 264.7. It counts as cell-based. More on the design: inhibition: dose or concentration left out as unconfirmed. The note with it: Mus musculus, RAW264.7; read-out: IL-6: % inh.
The test system of assay [1] is MiaPaca-2 (expressing KRAS G12C mutant). The experiment in a line: Proliferation Assay (Cell Viability Assay). It counts as cell-based. The note with it: Homo sapiens, MIA PaCa-2. On the procedure: Protocol for Proliferation Assay
This assay is referred to as the “Proliferation Assay” or “Cell Viability Assay” throughout this application.
Cell lines: Human tumor-derived cell lines were purchased from American Type Culture Collection. Human tumor-derived pancreatic cancer cell line MiaPaca-2 (expressing KRAS G12C mutant) and Panc-1 (expressing KRas G12D mutant), and Human non-small cell lung cancer (NSCLC) cell line A549 (expressing KRas G12S mutant) were grown in complete DMEM-High Glucose medium. Human colon cancer cell line SW-620 (expressing KRas G12V mutant) was grown in RPMI 1640 medium. All cell lines were supplemented with penicillin (100 U/mL), streptomycin (100 μg/mL), and 10% heat-inactivated FBS at 37° C. in a humidified incubator with 5% CO2.
Method: Cells were plated at 2000 to 5000 cells/well density in 96-wells plate and cultured overnight. Small molecules to be tested were added to the cells in the final concentration of 10 μM in the presence of 0.3% DMSO and 10% FBS and incubated for 2-4 days at 37° C. in a humidified incubator with 5% CO2. For IC50 value determination, serial dilutions of compounds were added to cells under the same conditions.
Assay: At the end of the incubation period, cell viability was determined using the CellTiter 96® Aqueous One Solution Cell Proliferation Assay according to manufacturer specifications (Promega, Madison, WI). The percentage of small molecules inhibition of cellular proliferation was calculated from raw data.
Cell lines: these Human tumor-derived cell lines were purchased from American Type Culture Collection. Human tumor-derived pancreatic cancer cell line MiaPaca-2 (expressing KRAS G12C mutant) and Panc-1 (expressing KRas G12D mutant), and Human non-small cell lung cancer (NSCLC) cell line A549 (expressing KRas G12S mutant), and Human melanoma cell line A375 (wild type Kras) were grown in complete DMEM-High Glucose medium. Human tumor-derived pancreatic cancer cell lines SU86.86 (expressing KRas G12D mutant), BxPC3 (expressing wild type K-Ras), and Human non-small cell lung cancer (NSCLC) cell lines NCI-H441 (expressing KRas G12S mutant), NCI-H1975 (expressing wild type KRas), NCI-H358 (expressing KRas G12C mutant), NCI-H1299 (expressing NRas Q61H mutant), and Human colon cancer cell line SW-620 (expressing KRas G12V mutant), Human triple negative breast cancer cell line HCC-1806 (expressing wild type KRas), and Human tumor-derived multiple myeloma cell line MM.1R (expressing wild type KRAS), were grown in RPMI 1640 medium. Human tumor-derived breast cancer cell line BT-549 (expressing wild type KRAS) was grown in RPMI 1640 medium in the presence of 11.8U insulin. Human tumor-derived pancreatic cancer cell line HPAF-II (expressing KRas G12D mutant), Human triple negative breast cancer cell line BT-20 (expressing wild type KRas), and Human colon cancer cell line LS123 (expressing KRas G12S mutant), were grown in EMEM medium. Human tumor-derived pancreatic cancer cell line CF-PAC1 (expressing KRas G12V mutant) was frown in IMDM medium, and Human colon cancer cell line HT29 (expressing wild type KRas) was grown in McCoy's 5A medium. The colon cancer cell line GP2d (expressing KRas G12D mutant) was purchased from MilliporeSigma and grown in DMEM-High Glucose medium. All cell lines were supplemented with penicillin (100 U/mL), streptomycin (100 μg/mL), and 10% heat-inactivated FBS at 37° C. in a humidified incubator with 5% CO2.
Method: Cells were plated at 2000 to 5000 cells/well density in 96-wells plate and cultured overnight. Small molecules that were tested were added to the cells in the final concentration of 10 μM in the presence of 0.3% DMSO and 10% FBS, and incubated for 2-4 days at 37° C. in a humidified incubator with 5% CO2. For IC50 value determination, serial dilutions of compounds were added to cells under the same conditions.

For a further assay, the system named is Akt phosphorylation. The experiment in a line: Akt Phosphorylation Assay (western blot), Panc-1. The note with it: at 10 μM, * = activation. The class given is cell-based, human. Here is the method:
Protocol for Western Akt Cell-Based Phosphorylation Assay
This assay is referred to as the “Akt Phosphorylation Assay” throughout this application.
Human tumor-derived pancreatic cancer cell line Panc-1 (expressing KRas G12D mutant) was purchased from American Type Culture Collection and grown in complete DMEM-High Glucose supplemented with penicillin (100 U/mL), streptomycin (100 μg/mL), and 10% heat-inactivated FBS at 37° C. in a humidified incubator with 5% CO2.
Method 1: Cells were plated at 350000 cells/well density in a 12-well plate, allowed 3 hours to adhere to the plate, then starved in the appropriate medium in the presence of 0.5% FBS overnight. The small molecules to be tested were added to the cells in the final concentration of 10 μM in the presence of 0.3% DMSO for 6 hours incubation at 37° C. Next, cells were stimulated with 1.5 ng/ml EGF for 15 minutes then cells were lysed with lysis buffer containing 1% Triton X-100, EDTA, and Halt™ Protease & Phosphatase Inhibitor Cocktail (Thermo Scientific). Protein concentration was assessed by BCA protein assay (Thermo Scientific). Phosphorylation level of Akt was determined by western blot.
Method 2: Cells were plated at 350000 cells/well density in a 12-well plate in 10% FBS. The next day small molecules to be tested were added to the cells in the final concentration of 10 μM in the presence of 0.3% DMSO for 6 hours incubation at 37° C. For IC50 value determination, serial dilutions of compounds were added to cells under the same conditions. Next, cells were lysed with lysis buffer containing 1% Triton X-100, EDTA, and Halt™ Protease & Phosphatase Inhibitor Cocktail (Thermo Scientific). Protein concentration was assessed by BCA protein assay (Thermo Scientific). Phosphorylation level of Akt was determined by western blot.
Western blot protocol: Equal amounts of protein (15-50 μg) were separated by SDS-PAGE and transferred to nitrocellulose membranes (Invitrogen by Thermo Fisher Scientific). The membrane was stained with Ponceau S Stain (Boston BioProducts) to verify uniform protein loading. Membranes were blocked with 10% milk and phosphorylation levels of Akt were assessed by incubating overnight at 4° C. with anti-phospho-Akt (Ser473) antibody (Cell Signaling) followed by HRP-conjugated secondary antibody (Jackson Immunoresearch, West Grove, PA). Bands were incubated in Amersham ECL Prime Western Blotting Detection Reagent (GE Healthcare) and visualized using the ChemiDoc MP imaging system (Bio-Rad).

Where [2] appears, read: read-out: Proliferation in MiaPaca-2: IC50.

In the case of `COc1cnc(Nc2nc(-c3nccn3C)nn3cc(-c4ccn(C)n4)c(C)c23)cn1` [Compound 110, N-(5-Methoxypyrazin-2-yl)-5-methyl-2-(1-methyl-1H-imidazol-2-yl)-6-(1-methyl-1H-pyrazol-3-yl)pyrrolo[2,1-f][1,2,4]triazin-4-amine], in the assay with TNF-alpha, the inhibition at 10 µM fell in the range of 1 to 24%. In addition, the inhibition in the assay with IL6 fell in the range of 1 to 24%. Further, the pIC50 in assay [1] (setting [2]) was greater than 6.82. For the same compound, the “% inh of Akt phosphorylation in Panc-1” value in the assay on Akt phosphorylation was “C* (46-84% activation)”.

In the case of `Cc1c(-c2ccn(C3CC3)n2)cn2nc(-c3nccn3C)nc(Nc3cc(OCCCO)ccn3)c12` [Compound 149, 3-((2-((6-(1-Cyclopropyl-1H-pyrazol-3-yl)-5-methyl-2-(1-methyl-1H-imidazol-2-yl)pyrrolo[2,1-f][1,2,4]triazin-4-yl)amino)pyridin-4-yl)oxy)propan-1-ol], the inhibition at 10 µM with TNF-alpha fell in the range of 75 to 100%. The inhibition with IL6 was in the range of 75 to 100%. Besides, the pIC50 in assay [1] (setting [2]) was 6.00 to 6.29. In addition, the “% inh of Akt phosphorylation in Panc-1” value with Akt phosphorylation is listed as “D* (85-100% activation)”.

Regarding `Cc1c(-c2ccn(C)n2)cn2nc(-c3nccn3C)nc(Nc3cc(OC4CC4)ccn3)c12` [Compound 126, N-(4-Cyclopropoxypyridin-2-yl)-5-methyl-2-(1-methyl-1H-imidazol-2-yl)-6-(1-methyl-1H-pyrazol-3-yl)pyrrolo[2,1-f][1,2,4]triazin-4-amine], the inhibition at 10 µM with TNF-alpha came out at 0%. The inhibition with IL6 lay in the range of 25 to 49%. Further, in assay [1] (setting [2]), the pIC50 was greater than 6.82. Also, the “% inh of Akt phosphorylation in Panc-1” value in the assay with Akt phosphorylation was “D* (85-100% activation)”.

Consider `Cc1c(-c2ccn(C(C)C)n2)cn2nc(-c3nccn3C)nc(Nc3cc(OCCO)ncn3)c12` [Compound 97, 2-((6-((6-(1-Isopropyl-1H-pyrazol-3-yl)-5-methyl-2-(1-methyl-1H-imidazol-2-yl)pyrrolo[2,1-f][1,2,4]triazin-4-yl)amino)pyrimidin-4-yl)oxy) ethan-1-ol], for which, in the assay with TNF-alpha, the inhibition at 10 µM came to 0%. For the same compound, in the assay with IL6, the inhibition lay in the range of 1 to 24%. Besides, the pIC50 in assay [1] (setting [2]) is greater than 6.82. The “% inh of Akt phosphorylation in Panc-1” value in the assay on Akt phosphorylation was “D* (85-100% activation)”.

Consider `CO[C@H]1CC[C@@H](Nc2nc(-c3ccccn3)nn3cc(-c4ccn(C(C)C)n4)c(C)c23)C1` (racemic) [Compound 9, rac 6-(1-Isopropyl-1H-pyrazol-3-yl)-N-((1R,3S)-3-methoxycyclopentyl)-5-methyl-2-(pyridin-2-yl)pyrrolo[2,1-f][1,2,4]triazin-4-amine], for which the inhibition at 10 µM in the assay with TNF-alpha is 0%. In addition, the inhibition with IL6 was 1 to 24%. Further, the pIC50 in assay [1] (setting [2]) is less than 6.00. Further, the “% inh of Akt phosphorylation in Panc-1” value with Akt phosphorylation is 0 (0% inhibition).

As to `CCOc1ccnc(Nc2nc(-c3nccn3C)nn3cc(-c4ccn(C5CC5)n4)c(C)c23)c1` [Compound 141, 6-(1-Cyclopropyl-1H-pyrazol-3-yl)-N-(4-ethoxypyridin-2-yl)-5-methyl-2-(1-methyl-1H-imidazol-2-yl)pyrrolo[2,1-f][1,2,4]triazin-4-amine], the inhibition at 10 µM in the assay with TNF-alpha was determined as 0%. In addition, in the assay on IL6, the inhibition fell in the range of 25 to 49%. For the same compound, the pIC50 in assay [1] (setting [2]) was greater than 6.82. Moreover, the “% inh of Akt phosphorylation in Panc-1” value with Akt phosphorylation is “A (1-25% inhibition)”.

`Cc1c(-c2ccn(C)n2)cn2nc(-c3nccn3C)nc(Cl)c12` [Compound 99, 4-Chloro-5-methyl-2-(1-methyl-1H-imidazol-2-yl)-6-(1-methyl-1H-pyrazol-3-yl)pyrrolo[2,1-f][1,2,4]triazine]: the inhibition at 10 µM in the assay with TNF-alpha was 75 to 100%. For the same compound, the inhibition in the assay on IL6 was 75 to 100%. Further, in assay [1] (setting [2]), the pIC50 is less than 6.00. The “% inh of Akt phosphorylation in Panc-1” value in the assay on Akt phosphorylation is listed as “A* (1-25% activation)”.

Consider `Cc1c(-c2ccn(C)n2)cn2nc(-c3nccn3C)nc(Nc3cc(OCC(F)(F)F)ccn3)c12` [Compound 129, 5-Methyl-2-(1-methyl-1H-imidazol-2-yl)-6-(1-methyl-1H-pyrazol-3-yl)-N-(4-(2,2,2-trifluoroethoxy)pyridin-2-yl)pyrrolo[2,1-f][1,2,4]triazin-4-amine], for which, in the assay on TNF-alpha, the inhibition at 10 µM is 1 to 24%. In the assay with IL6, the inhibition was in the range of 50 to 74%. Besides, in assay [1] (setting [2]), the pIC50 is greater than 6.82. Moreover, in the assay with Akt phosphorylation, the “% inh of Akt phosphorylation in Panc-1” value is “C* (46-84% activation)”.

In the case of `COc1cc(Nc2nc(-c3nccn3C)nn3cc(-c4ccn(C(C)C)n4)c(C)c23)ncn1` [Compound 6, 6-(1-Isopropyl-1H-pyrazol-3-yl)-N-(6-methoxypyrimidin-4-yl)-5-methyl-2-(1-methyl-1H-imidazol-2-yl)pyrrolo[2,1-f][1,2,4]triazin-4-amine], in the assay with TNF-alpha, the inhibition at 10 µM fell in the range of 25 to 49%. The inhibition with IL6 fell in the range of 75 to 100%. Moreover, the pIC50 in assay [1] (MiaPaca2, pancreatic, KRas G12C, read-out: Proliferation assay IC50) was greater than 6.82; in assay [1] (setting [2]) it was 6.30 to 6.82. In assay [1] (Proliferation assay, MiaPaca-2, read-out: MiaPaca-2 IC50 (nM) Pancreatic), the IC50 (usually the midpoint of a concentration-inhibition curve) was in the range of 10 to 50 nM. In the assay with Akt phosphorylation, the “% inh of Akt phosphorylation in Panc-1” value is recorded as 0 (0% inhibition).

On to `Cc1c(-c2ccn(C(C)C)n2)cn2nc(-c3nccn3C)nc(Nc3cc(OCCN(C)C)ncn3)c12` [Compound 123, N-(6-(2-(Dimethylamino)ethoxy)pyrimidin-4-yl)-6-(1-isopropyl-1H-pyrazol-3-yl)-5-methyl-2-(1-methyl-1H-imidazol-2-yl)pyrrolo[2,1-f][1,2,4]triazin-4-amine], for which the inhibition at 10 µM in the assay with TNF-alpha was 25 to 49%. In the assay with IL6, the inhibition fell in the range of 75 to 100%. The pIC50 in assay [1] (setting [2]) was greater than 6.82. The “% inh of Akt phosphorylation in Panc-1” value in the assay with Akt phosphorylation is recorded as “B* (26-49% activation)”.
